Measurements from patent US4844894A, “Method of inhibiting the onset of septicemia and endotoxemia” (priority 1986, dated 1989).

Experiments:
[1] = test system: E. coli 055B5; assay: Septic endotoxemia: challenge with 30 LD50's of E. coli 055B5 in mice; format: in vivo; details: 25, 25 and 50 ug MPL ip on days 0, 1 and 2; challenge on day 2
Method: (§1) Injection of mice ip with live E. coli provides a good model of gram-negative sepsis and associated endotoxemia, since E. coli readily sheds endotoxin. In this model, a known quantity of live E. coli are injected, and the survivors are counted for an appropriate number of days. The effectiveness of a treatment is evidenced by an increase in the survivorship for a treated group.
In a manner similar to that employed in Example 3, 10 mice were given ip injections on days 0, 1 and 2 of 25, 25 and 50 ug MPL, respectively, corresponding to a total of 100 ug MPL for each mouse. Mice in the control group received only saline. On day 2, all mice received a challenge consisting of 30 LD50 's of E. coli 055B5. This corresponds to an overwhelming challenge dose. No mice in the control group survived, while 50% animals (5/10) in the treatment group survived.

[2] = test system: rabbits; details: Table B, ref (2); cited from earlier work
[3] = test system: endotoxin from E. coli K235; assay: Non-septic endotoxemia: endotoxin from E. coli K235 challenge ip in mice; format: in vivo; details: pre-treated with 100 ug MPL
Method: (§2) A model for non-septic endotoxemia is to inject mice intraperitoneally (ip) with endotoxin. […] Depending on the dose, death may occur within about 72 hours. The LD50 can be determined by injecting groups of mice with different doses of endotoxin, and noting the number of survivors in each group. The protective effect of a given treatment is evidenced by an increase in the LD50 of the endotoxin challenge.
(§3) In this embodiment, mice were injected ip on day 0 with either 100 ug MPL in 0.25 ml saline (treatment group) or else saline alone (control group). On day 3, mice in both groups received an ip injection containing one of several different doses of endotoxin (E. coli 0111:B 4). There were 8 mice at each endotoxin dose level. The doses for the control group were […] endotoxin. The doses for treatment group were 0.75, 1.00, 1.25, 1.50, 2.0, and 2.5 mg endotoxin. […] The LD50 for each group was calculated using the method of Reed and Meuench (ibid.). […] Since only 2 mice dies at the highest endotoxin dose in the treatment group, the LD50 the LD50 could not be calculated for this group. It is evident, however, that it would be well above 2.5 mg, probably around 5-6 mg. This would correspond to at least a 4 to 5 fold increase in the LD50 following treatment with MPL.
In another experiment the LD50 's for both the control and the treatment groups were successfully determined. The experimental design was essentially the same as that described above except that the endotoxin used was obtained from E. coli K235.

[4] = test system: E. coli 055B5; assay: Septic endotoxemia: challenge with 5 LD50's of live E. coli 055B5 in mice; format: in vivo; details: 50 ug MPL ip on days 0 and 1; challenge on day 2
Method: as §1
In the experiment, 10 mice were given ip injections of 50 ug MPL on days 0 and 1. They therefore received a total of 100 ug MPL. The control group received only saline. All mice were challenged on day 2 with 5 LD50 's of E. coli 055B5 organisms, also injected ip. All control animals died, whereas all treated animals (10/10) survived.

[5] = test system: septicemia; assay: Nonspecific resistance to septicemia induced in mice by cecal ligation and puncture; format: in vivo, NMRI mice; details: 1 μg, ip, 24 hr prior surgery
Method: 14 NMRI mice were pretreated with one microgram of MPL administered by intraperitoneal injection. 24 hours later each of the mice underwent surgery wherein the cecum of each mouse was ligated and punctured to internally expose the mice to microorganisms capable of instigating the onset of septicemia. […] A second group of mice were subjected to surgery in precisely the same way without pretreatment with MPL.

[6] = test system: endotoxin (E. coli 0111:B 4); assay: Non-septic endotoxemia: endotoxin (E. coli 0111:B4) challenge ip in mice; format: in vivo; details: 100 ug MPL ip day 0
Method: as §2, §3

[7] = Phosphorous content; format: physicochemical; details: Percent by weight
[8] = test system: rabbits; details: Table B, refs (1), (2); cited from earlier work
[9] = test system: chick embryos; assay: Chick embryo 50% lethal dose assay (CELD50); format: in vivo
Method: A sensitive measure of endotoxin toxicity is the chick embryo 50% lethal dose assay (CELD50). In this test, chick embryos at 10 days of age are injected with varying doses of the material to be tested. […] Using the chick embryo test, a comparison was made of the toxicity of radiation-detoxified endotoxin with the parent endotoxin as well as with MPL.

[10] = relative to parent endotoxin; cited from earlier work
[11] = test system: rabbits; details: Table B, refs (1), (3); cited from earlier work
[12] = 120 hrs after induction of septicemia

CCCCCCCCCCCCCC(=O)OC(CCCCCCCCCCC)CC(=O)OC1C(NC(=O)CC(CCCCCCCCCCC)OC(=O)CCCCCCCCCCC)C(OCC2OC(O)C(NC(=O)CC(O)CCCCCCCCCCC)C(OC(=O)CC(O)CCCCCCCCCCC)C2O)OC(CO)C1OP(=O)(O)O (stereo not shown) [MPL, Monophosphoryl Lipid A]
animals survived in treatment group [1]: 5/10
survival, % of animals in treatment group [1]: 50%
LD50 in rabbits [2]: > 8,000 mcg/kg
LD50 of endotoxin in pre-treated mice [3]: 1.16 mg
increase (factor) in LD50 of endotoxin [3]: ~5 factor
symptoms of endotoxemia [3]: did not show any of the usual symptoms of endotoxemia
treated animals survived [4]: 10/10
effect on onset of septicemia, in words [5]: inhibits the onset of septicemia
% Survival [5, 12]: 71%
Dead/Total [5, 12]: 4/14
mice dying at the highest endotoxin dose ([6]; 2.5 mg endotoxin day 3, 8 mice per dose level): 2 mice
fold increase in LD50 of endotoxin following treatment ([6]; endotoxin ip day 3): 4 to 5 fold
Phosphorous Content [7]: 1.8%
Pyrogenicity in rabbits (difference between basic and maximal body temperature) [8]: 0 °C
eggs killed in CELD50 test ([9]; at any dose, footnote to Table A): No eggs killed at any dose
CELD50 ([9]; chick embryos at 10 days of age, survivors at 24 hours): > 20 µg
toxicity in CELD50 assay, in words ([9]; text conclusion from Table A): essentially no toxicity
toxicity in all of the Table B assays, in words [10]: only negligible toxicity
Local Shwartzman Reaction in rabbits (area of hemorrhagic lesion) [11]: < 10 mm^2
